# ChEMBL document CHEMBL3509421, “FDA drug approval package for diclofenac acid (NDA 22-202 CP, Ref ID: 3374276)”
# Key:
# [1] = Mean Cmax of diclofenac following single oral dosing of 50 mg diclofenac potassium soft gelatin capsule in healthy human; type: ADME, organism-based; set-up: dietary status Fasting, dose 50 mg, dosed compound id 2.46815e+06, dosed compound name Diclofenac potassium, gender Mixed, regimen Single, route oral, study doses 25/50 mg; details: both, plasma
# [2] = Mean AUC (0-t) value of diclofenac following single oral dosing of 35 mg Zorvolex capsule in healthy human; type: ADME, organism-based; set-up: dietary status Fasting, dose 35 mg, dosed compound id 2.46815e+06, dosed compound name Diclofenac, gender Mixed, regimen Single, route oral; details: both, plasma
# [3] = Mean AUC (0-infinity) of diclofenac following single oral dosing of 25 mg diclofenac potassium softgel capsule in healthy human; type: ADME, organism-based; set-up: time infinity, dietary status Fasting, dose 25 mg, dosed compound id 2.46815e+06, dosed compound name Diclofenac potassium, gender Mixed, regimen Single, route oral, study doses 25/50 mg; details: both, plasma, read-out: AUC (0-infinity)
# [4] = Geometric mean for AUC (0-infinity) of diclofenac following single oral dosing of 35 mg Zorvolex capsule in healthy human; type: ADME, organism-based; set-up: time infinity, dietary status Fasting, dose 35 mg, dosed compound id 2.46815e+06, dosed compound name Diclofenac, gender Mixed, regimen Single, route oral; details: both, plasma, read-out: AUC (0-infinity)
# [5] = (§1) Mean terminal elimination half-life of diclofenac potassium following oral dosing of Cataflam 50 mf tablet in healthy human; details: both, plasma, 50 mg
# [6] = Minimum tmax of diclofenac following single oral dosing of 35 mg Zorvolex capsule in healthy human; type: ADME, organism-based, Plasma; set-up: dietary status Fed, dose 35 mg, dosed compound id 2.46815e+06, dosed compound name Diclofenac, gender Mixed, regimen Single, route oral; details: in vivo
# [7] = Mean Cmax of diclofenac potassium following oral dosing of PRO-513 50 mg sachet in healthy human; type: ADME, organism-based; set-up: dietary status Fed, dose 50 mg, dosed compound id 2.46815e+06, dosed compound name Diclofenac potassium, gender Mixed, regimen Single, route oral, study doses 50 mg; details: both, plasma
# [8] = (§2) Geometric mean for Cmax of diclofenac following single oral dosing of 50 mg Cataflam tablet in healthy human; type: ADME, organism-based; set-up: dietary status Fed, dose 50 mg, dosed compound id 2.46815e+06, dosed compound name Diclofenac potassium, gender Mixed, regimen Single, route oral; details: both, plasma
# [9] = (§3) Mean Kel of diclofenac potassium following oral dosing of Cataflam 50 mf tablet in healthy human; type: ADME, organism-based; set-up: dietary status Fed, dose 50 mg, dosed compound id 2.46815e+06, dosed compound name Diclofenac potassium, gender Mixed, regimen Single, route oral, study doses 50 mg; details: both, plasma, 50 mg
# [10] = Mean Cmax of diclofenac potassium following oral dosing of Cataflam 50 mf tablet in healthy human; type: ADME, organism-based; set-up: dietary status Fed, dose 50 mg, dosed compound id 2.46815e+06, dosed compound name Diclofenac potassium, gender Mixed, regimen Single, route oral, study doses 50 mg; details: both, plasma, 50 mg
# [11] = Mean AUC (0-infinity) of diclofenac following single oral dosing of 50 mg diclofenac potassium softgel capsule in healthy human; type: ADME, organism-based; set-up: time infinity, dietary status Fasting, dose 50 mg, dosed compound id 2.46815e+06, dosed compound name Diclofenac potassium, gender Mixed, regimen Single, route oral, study doses 25/50 mg; details: both, plasma, read-out: AUC (0-infinity)
# [12] = Maximum tmax of diclofenac following single oral dosing of 35 mg Zorvolex capsule in healthy human; type: ADME, organism-based, Plasma; set-up: dietary status Fed, dose 35 mg, dosed compound id 2.46815e+06, dosed compound name Diclofenac, gender Mixed, regimen Single, route oral; details: in vivo
# [13] = as §2; type: ADME, organism-based; set-up: dietary status Fasting, dose 50 mg, dosed compound id 2.46815e+06, dosed compound name Diclofenac potassium, gender Mixed, regimen Single, route oral; details: both, plasma
# [14] = Mean Cmax of diclofenac following single oral dosing of 50 mg diclofenac potassium softgel capsule in healthy human; type: ADME, organism-based; set-up: dietary status Fed, dose 50 mg, dosed compound id 2.46815e+06, dosed compound name Diclofenac potassium, gender Mixed, regimen Single, route oral, study doses 25/50 mg; details: both, plasma
# [15] = Mean minimum Tmax value of diclofenac potassium following oral dosing of Cataflam 50 mf tablet in healthy human; type: ADME, organism-based; set-up: dietary status Fasting, dose 50 mg, dosed compound id 2.46815e+06, dosed compound name Diclofenac potassium, gender Mixed, regimen Single, route oral, study doses 50 mg; details: both, plasma, 50 mg, read-out: Minimum Tmax
# [16] = as §1; details: both, plasma, 50 mg; remark: listed apart in the source
# [17] = (§4) Geometric mean for apparent terminal elimination rate constant of diclofenac following single oral dosing of 35 mg Zorvolex capsule in healthy human; type: ADME, organism-based, Plasma; set-up: dietary status Fed, dose 35 mg, dosed compound id 2.46815e+06, dosed compound name Diclofenac, gender Mixed, regimen Single, route oral; details: in vivo
# [18] = (§5) Mean AUC(0-infinity) of diclofenac potassium following oral dosing of Cataflam 50 mf tablet in healthy human; type: ADME, organism-based; set-up: dietary status Fed, dose 50 mg, dosed compound id 2.46815e+06, dosed compound name Diclofenac potassium, gender Mixed, regimen Single, route oral, study doses 50 mg, time infinity; details: both, plasma, 50 mg, read-out: AUC(0-infinity)
# [19] = Geometric mean for Cmax of diclofenac following single oral dosing of 35 mg Zorvolex capsule in healthy human; type: ADME, organism-based; set-up: dietary status Fasting, dose 35 mg, dosed compound id 2.46815e+06, dosed compound name Diclofenac, gender Mixed, regimen Single, route oral; details: both, plasma
# [20] = Median tmax of diclofenac following single oral dosing of 50 mg Cataflam tablet in healthy human; type: ADME, organism-based; set-up: dietary status Fasting, dose 50 mg, dosed compound id 2.46815e+06, dosed compound name Diclofenac potassium, gender Mixed, regimen Single, route oral; details: both, plasma, read-out: Median Tmax
# [21] = Mean Tmax of diclofenac following single oral dosing of 50 mg diclofenac potassium soft gelatin capsule in healthy human; type: ADME, organism-based; set-up: dietary status Fasting, dose 50 mg, dosed compound id 2.46815e+06, dosed compound name Diclofenac potassium, gender Mixed, regimen Single, route oral, study doses 25/50 mg; details: both, plasma
# [22] = as §3; type: ADME, organism-based; set-up: dietary status Fasting, dose 50 mg, dosed compound id 2.46815e+06, dosed compound name Diclofenac potassium, gender Mixed, regimen Single, route oral, study doses 50 mg; details: both, plasma, 50 mg
# [23] = clinical; details: both, human, plasma, po, 50 mg
# Description: Mean terminal elimination half-life of diclofenac following single oral dosing of 50 mg diclofenac potassium softgel capsule in healthy human
# [24] = Mean AUC(0-infinity) of diclofenac following single oral dosing of 25 mg diclofenac potassium soft gelatin capsule in healthy human; type: ADME, organism-based; set-up: time infinity, dietary status Fasting, dose 25 mg, dosed compound id 2.46815e+06, dosed compound name Diclofenac potassium, gender Mixed, regimen Single, route oral, study doses 25/50 mg; details: both, plasma, read-out: AUC (0-infinity)
# [25] = Mean Cmax of diclofenac following single oral dosing of 25 mg diclofenac potassium soft gelatin capsule in healthy human; type: ADME, organism-based; set-up: dietary status Fasting, dose 25 mg, dosed compound id 2.46815e+06, dosed compound name Diclofenac potassium, gender Mixed, regimen Single, route oral, study doses 25/50 mg; details: both, plasma
# [26] = Mean Tmax of diclofenac following single oral dosing of 25 mg diclofenac potassium softgel capsule in healthy human; type: ADME, organism-based; set-up: dietary status Fasting, dose 25 mg, dosed compound id 2.46815e+06, dosed compound name Diclofenac potassium, gender Mixed, regimen Single, route oral, study doses 25/50 mg; details: both, plasma
# [27] = as §5; type: ADME, organism-based; set-up: time infinity, dietary status Fasting, dose 50 mg, dosed compound id 2.46815e+06, dosed compound name Diclofenac potassium, gender Mixed, regimen Single, route oral, study doses 50 mg; details: both, plasma, 50 mg, read-out: AUC(0-infinity)
# [28] = clinical; details: both, human, plasma, po, 35 mg
# [29] = as §4; type: ADME, organism-based, Plasma; set-up: dietary status Fasting, dose 35 mg, dosed compound id 2.46815e+06, dosed compound name Diclofenac, gender Mixed, regimen Single, route oral; details: in vivo
# [30] = Mean Cmax value of diclofenac following single oral dosing of 35 mg Zorvolex capsule in healthy human; type: ADME, organism-based; set-up: dietary status Fasting, dose 35 mg, dosed compound id 2.46815e+06, dosed compound name Diclofenac, gender Mixed, regimen Single, route oral; details: both, plasma
# [31] = Mean apparent terminal elimination rate constant value of diclofenac following single oral dosing of 35 mg Zorvolex capsule in healthy human; type: ADME, organism-based, Plasma; set-up: dietary status Fasting, dose 35 mg, dosed compound id 2.46815e+06, dosed compound name Diclofenac, gender Mixed, regimen Single, route oral; details: in vivo
compound,measurement,setting,value
O=C(O)Cc1ccccc1Nc1c(Cl)cccc1Cl [DICLOFENAC],Cmax,[1],2040 ng/mL
same,AUC(0-t),[2],1000 ng·h/mL
same,AUC(0-inf),[3],706 ng·h/mL
same,AUC(0-inf),[4],979 ng·h/mL
same,half-life,[5],93.6 min
same,Minimum Tmax,[6],30 min
same,Cmax,[7],506 ng/mL
same,Cmax,[8],621 ng/mL
same,k el,[9],0.000136 s⁻¹
same,Cmax,[10],835 ng/mL
same,AUC(0-inf),[11],1550 ng·h/mL
same,Maximum Tmax,[12],10 h
same,Cmax,[13],1090 ng/mL
same,Cmax,[14],1150 ng/mL
same,Tmax,[15],15 min
same,half-life,[16],77.4 min
same,lambda-z,[17],0.333 h⁻¹
same,AUC(0-inf),[18],1070 ng·h/mL
same,Cmax,[19],804 ng/mL
same,Tmax,[20],1 h
same,Tmax,[21],28.8 min
same,k el,[22],0.000164 s⁻¹
same,half-life,[23],66 min
same,AUC(0-inf),[24],603 ng·h/mL
same,Cmax,[25],1120 ng/mL
same,Tmax,[26],29.4 min
same,AUC(0-inf),[27],1100 ng·h/mL
same,half-life,[28],126 min
same,lambda-z,[29],0.34 h⁻¹
same,Cmax,[30],869 ng/mL
same,lambda-z,[31],0.349 h⁻¹
